Read-outs that look alike come from different tables or passages of the source.

The subject of one data set is CTGF mRNA. Conditions: rat skin, cited from earlier work; for reduction of CTGF mRNA: Days 1 and 3, biopsy Day 8, vs dose matched non-targeting control.
Data set [1] in a line: Stability of DPCP in solvents at 50° C., reverse phase HPLC on a C18 column. It counts as physicochemical. The method, then: (§1) The compatibility and solubility of DPCP was determined in both isopropyl myristate (IPM) as well as Polysorbate 80 (PS80). […] Next, the stability of DPCP in these solvents was determined. A solution of 0.4% DPCP in isopropyl myristate and a solution of 0.4% DPCP in Polysorbate 80 was placed at 50° C. for two weeks. The stability of DPCP in these solvents was determined using reverse phase HPLC on a C18 column.
For the development of a gel formulation, the stability of DPCP was determined in both Ethanol (ETOH) and Isopropanol (IPA) (0.4% DPCP solutions in each solvent was placed at 50° C. for two weeks; FIG. 2. All solutions contained 0.1% BHT). […] However, DPCP was stable in IPA. The stability of DPCP in the above solvents was determined using reverse phase HPLC on a C18 column.

Data set [2] can be described thus: Solubility of DPCP in solvents for gels and ointments. The format is physicochemical. The method, then: as §1
The next data set has as its system alopecia areata. The following applies: cited from earlier work.

As for “RXI-109: CTGF-targeting sd-rxRNA consisting of sense strand SEQ ID NO:27 (TEG-Chl) and antisense strand SEQ ID NO:28 (sense GCACCUUUCUAGA; antisense UCUAGAAAGGUGCAAACAU; TEG-cholesterol on sense strand; (2)..(2) Modified with 2′Ome; (4)..(10) Modified with 2′Ome; (11)..(13) Phosphorothioate internucleotide bond; (12)..(13) Modified with 2′Ome; (13)..(13) Modified with TEG-Chl; (1)..(1) Modified with P; (1)..(1) Modified with 2′Ome; (2)..(3) Modified with 2′fluoro; (6)..(6) Modified with 2′Ome; (8)..(8) Modified with 2′Ome; (11)..(11) Modified with 2′fluoro; (13)..(13) Modified with 2′Ome; (13)..(19) Phosphorothioate internucleotide bond; (17)..(17) Modified with 2′Ome)”, the “reduction of CTGF mRNA” value in the data set with CTGF mRNA (300 μg per intradermal injection) is 51%; with CTGF mRNA (600 μg per intradermal injection), 67%. The “duration of silencing of CTGF vs. non-targeting control” value with CTGF mRNA (following two intradermal injections) is recorded as “sustained for at least five days”.

As for `O=c1c(-c2ccccc2)c1-c1ccccc1` [DPCP, Diphenylcyclopropenone], the “stability of DPCP” value in data set [1] (0.4% DPCP in Ethanol, 0.1% BHT, in the presence of citric acid, 50° C., two weeks) is given as “Some degradation”; in data set [1] (0.4% DPCP in Isopropanol (IPA), 0.1% BHT, 50° C., two weeks), “stable”; in data set [1] (0.4% DPCP in Polysorbate 80, 50° C., two weeks), “some degradation”; in data set [1] (0.4% DPCP in isopropyl myristate, 50° C., two weeks), “stable”; in data set [1] (in PS80 with butylated hydroxytoloune (BHT)), “reduce the amount of degradation”. The “solubility of DPCP” value in data set [2] (in Polysorbate 80 (PS80)) is recorded as “highly soluble”; in data set [2] (in isopropyl myristate (IPM)) it was roughly 1.1 % w/w. Moreover, the “initial hair regrowth visible after” value in the data set with alopecia areata (alopecia areata patients, 2% sensitizing dose followed by 0.001% challenge doses) is on record as 8-12 weeks. Also, the response rates in the data set with alopecia areata (in over 25 different studies for treating AA with haptens) was 29-78%.

Source of the values: US20180263925A1, “METHODS FOR THE TREATMENT OF ALOPECIA AREATA UTILIZING GENE MODULATION APPROACHES” (RXi Pharmaceuticals Corporation, priority 2014, published 2018).
